pKi: −log10 of the molar value.
Columns and labels:
[1] = target: T1, full-length hepatitis C viral protein NS3•4A (Hepatitis C virus genotype 1a, UniProt P27958); experiment: biochemical; design: species or system HCV sub-type strain 1a; settings: Enzyme Assay 2 (HCV NS3 Peptide Cleavage Assay) activity, apparent Ki class
T1 construct: hexa-histidine (N); made in house; host or cells: Sf9 insect cells (baculovirus, pVL1392)

HCV NS3 protease domain = target: T2, HCV NS3 protease domain (Hepatitis C virus genotype 1b, UniProt Q9WMX2); experiment: biochemical; settings: Enzyme Assay 1 (HCV NS3 Protease Domain Peptide Cleavage Assay) activity, apparent Ki class
T2 construct: The first 181 amino acids of NS3 (residues 1027-1207 of the viral polyprotein); hexa-histidine (C); made in house; host or cells: E. coli BL21/DE3 pLysS

SMILES | pKi [1] | pKi (HCV NS3 protease domain)
CCC[C@H](NC(=O)[C@@H]1C[C@]2(CC(c3cc(Cl)c(OC)cc3C)=NO2)CN1C(=O)[C@@H](NC(=O)CC1CCCCC1)C(C)(C)C)C(=O)C(=O)NC1CC1 [Compound 366] | > 7.00 | 6.30 to 7.00
CCC[C@H](NC(=O)[C@@H]1C[C@]2(CC(c3cc(Cl)c4c(c3)OCO4)=NO2)CN1C(=O)[C@@H](NC(=O)CC1CCCCC1)C(C)(C)C)C(=O)C(=O)NC1CC1 [Compound 370] | > 7.00 | 6.30 to 7.00
CCC[C@H](NC(=O)[C@@H]1C[C@]2(CC(c3cccc(Cl)c3)=NO2)CN1C(=O)[C@@H](NC(=O)CC1CCCCC1)C(C)(C)C)C(=O)C(=O)NC1CCCC1 [Compound 372] | 6.30 to 7.00 | 6.30 to 7.00
CCC[C@H](NC(=O)[C@@H]1C[C@]2(CC(c3cccc(Cl)c3)=NO2)CN1C(=O)CCn1c(=O)oc2ccccc21)C(=O)C(=O)NC1CC1 [Compound 376] | < 6.30 | < 6.30
CCC[C@H](NC(=O)[C@@H]1C[C@]2(CC(c3cccc(Cl)c3)=NO2)CN1C(=O)[C@@H](NC(=O)[C@@H]1CCC(=O)N1Cc1cccc(Cl)c1)C(C)(C)C)C(=O)C(=O)NC1CC1 [Compound 377] | > 7.00 | 6.30 to 7.00
C=C[C@@H]1C[C@]1(NC(=O)[C@@H]1C[C@]2(CC(c3cccc(Cl)c3)=NO2)CN1C(=O)[C@@H](NC(=O)CC1CCOCC1)C(C)(C)C)C(=O)O [Compound 384] | < 6.30 | < 6.30
CC(C)(C)[C@H](NC(=O)CC1CCCCC1)C(=O)N1C[C@@]2(CC(c3cccc(Cl)c3)=NO2)C[C@H]1C(=O)N[C@@H](CC1CC1)C(=O)C(N)=O [Compound 388] | > 7.00 | > 7.00
CCC[C@H](NC(=O)[C@@H]1C[C@]2(CC(c3cccc(Cl)c3)=NO2)CN1C(=O)CC(NS(=O)(=O)c1ccc(OC)cc1)C(C)C)C(=O)C(=O)NC1CC1 (stereo partly shown) [Compound 395] | < 6.30 | < 6.30
CCC[C@H](NC(=O)[C@@H]1C[C@]2(CC(c3cccc(Cl)c3)=NO2)CN1C(=O)CN1C(=O)OC[C@@H]1c1ccccc1)C(=O)C(=O)NC1CC1 [Compound 397] | < 6.30 | < 6.30
CCC[C@H](NC(=O)[C@@H]1C[C@]2(CC(c3cccc(Cl)c3)=NO2)CN1C(=O)[C@@H](NC(=O)CC1CCCCC1)C(C)(C)C)C(=O)C(=O)NC1(C(=O)OC)CC1 [Compound 399] | < 6.30 | < 6.30
CCC[C@H](NC(=O)[C@@H]1C[C@]2(CC(c3cccc(Cl)c3)=NO2)CN1C(=O)[C@@H](NC(=O)CC1CCCCC1)C(C)(C)C)C(=O)C(=O)NC1CCC1 [Compound 401] | 6.30 to 7.00 | 6.30 to 7.00
CCC[C@H](NC(=O)[C@@H]1C[C@]2(CC(c3cccc(Cl)c3)=NO2)CN1C(=O)[C@@H](NC(=O)CC1CCCCC1)C(C)(C)C)C(=O)C(=O)NCCOC [Compound 404] | 6.30 to 7.00 | < 6.30
CCC[C@H](NC(=O)[C@@H]1C[C@]2(CC(c3cccc(Cl)c3)=NO2)CN1C(=O)[C@@H](NC(=O)CC1CCCCC1)C(C)(C)C)C(=O)C(=O)NCc1cccnc1 [Compound 408] | 6.30 to 7.00 | < 6.30
CCC[C@H](NC(=O)[C@@H]1C[C@]2(CC(c3cccc(Cl)c3)=NO2)CN1C(=O)[C@@H](NC(=O)CC1CCCCC1)C(C)(C)C)C(=O)C(=O)N1CCOCC1 [Compound 410] | < 6.30 | < 6.30
CCC[C@H](NC(=O)[C@@H]1C[C@]2(CC(c3cc(F)c(OCC)c(Cl)c3)=NO2)CN1C(=O)[C@@H](NC(=O)CC1CCOCC1)C(C)(C)C)C(=O)C(=O)NC1CC1 [Compound 411] | > 7.00 | 6.30 to 7.00
CCC[C@H](NC(=O)[C@@H]1CC2(CC(c3cccc(Cl)c3)=NO2)CN1C(=O)[C@H](Cc1ccc(O)cc1)NC(C)=O)C(=O)C(=O)NC1CC1 (stereo partly shown) [Compound 412] | 6.30 to 7.00 | 6.30 to 7.00
CCC[C@H](NC(=O)[C@@H]1C[C@]2(CC(c3cccc(Cl)c3)=NO2)CN1C(=O)[C@@H](NS(=O)(=O)c1ccc(Cl)cc1)C(C)CC)C(=O)C(=O)NC1CC1 (stereo partly shown) [Compound 416] | 6.30 to 7.00 | < 6.30

From patent US7964624B1, “Inhibitors of serine proteases” (priority 2005, dated 2011)
